From US10316017B2, “COT modulators and methods of use thereof” (Gilead Sciences, Inc., priority 2015, dated 2019) come the findings set out here.

Some results are limits rather than exact numbers.

This experiment deals with T1, human Cot catalytic domain (30-397 amino acids) (Homo sapiens, UniProt P41279).
T1 construct: Purified recombinant human Cot catalytic domain (30-397 amino acids) was purchased from Cama Biosciences; purchased Cama Biosciences (so in the source)
T1 sequence (P41279 30-397): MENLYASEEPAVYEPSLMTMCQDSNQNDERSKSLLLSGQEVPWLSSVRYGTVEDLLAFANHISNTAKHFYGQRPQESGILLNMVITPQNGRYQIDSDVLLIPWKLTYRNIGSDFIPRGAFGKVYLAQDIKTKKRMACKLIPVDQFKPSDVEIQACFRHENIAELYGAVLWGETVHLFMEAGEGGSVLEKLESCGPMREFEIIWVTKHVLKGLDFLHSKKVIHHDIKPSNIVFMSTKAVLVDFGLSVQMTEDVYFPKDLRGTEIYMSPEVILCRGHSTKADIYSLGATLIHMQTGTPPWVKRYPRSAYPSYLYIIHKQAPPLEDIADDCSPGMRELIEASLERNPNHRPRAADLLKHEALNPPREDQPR
As to the kind of experiment: High Throughput Cot Biochemical Assay (KinEASE TR-FRET). The conditions noted are these: Cot KinEASE TR-FRET, 400 μM ATP; read-out: IC50 HTRF. The protocol:
Example 61: High Throughput Cot Biochemical Assay
In this assay, Cot-catalyzes the phosphorylation of a XL665-labeled peptide substrate. Europium conjugated phospho-tyrosine specific antibody binds the resulting phosphorylated peptide. […] Purified recombinant human Cot catalytic domain (30-397 amino acids) was purchased from Cama Biosciences. […] The standard 5 μL reaction mixture contained 400 μM ATP, 1 μM STK3 peptide, 5 nM of Cot in reaction buffer (10 mM MOPS, pH 7.0, 0.02% NaN3, 0.5 mg/mL BSA, 10 mM MgOAc, 1 mM DTT, 0.025% NP-40, 1.5% glycerol) and 0.1% DMSO.
Turning to `CCN1CCC(n2cc(C(Nc3cc(Cl)c4ncc(C#N)c(Nc5ccc(F)c(Cl)c5)c4c3)c3ccc(F)cc3)nn2)CC1(C)C` (centres unmarked) [Example 838, 8-chloro-4-((3-chloro-4-fluorophenyl)amino)-6-(((1-(1-ethyl-2,2-dimethylpiperidin-4-yl)-1H-1,2,3-triazol-4-yl)(4-fluorophenyl)methyl)amino) quinoline-3-carbonitrile], the IC50 was determined as 32 nM.
Next, `CC(C)(C)N1CCC(n2cc([C@@H](Nc3cc(Cl)c4ncc(C#N)c(Nc5cccc(C(F)(F)F)c5)c4c3)c3ccc(Cl)cc3)nn2)CC1` [Example 762, (S)-6-(((1-(1-(tert-butyl)piperidin-4-yl)-1H-1,2,3-triazol-4-yl)(4-chlorophenyl)methyl)amino)-8-chloro-4-((3-(trifluoromethyl)phenyl)amino) quinoline-3-carbonitrile]: 513 nM; `CCN1CCC(n2cc(C(Nc3cc(Cl)c4ncc(C#N)c(Nc5ccc(F)c(Cl)c5)c4c3)c3ccc(F)c(F)c3)nn2)CC1` (centres unmarked) [Example 901, 8-chloro-4-((3-chloro-4-fluorophenyl)amino)-6-(((3,4-difluorophenyl)(1-(1-ethylpiperidin-4-yl)-1H-1,2,3-triazol-4-yl)methyl)amino)quinoline-3-carbonitrile]: 11 nM; `CC(C)(C)N1CCC(n2cc([C@@H](Nc3cc(Cl)c4ncc(C#N)c(Nc5ccn(CC(F)(F)F)n5)c4c3)c3ccc(Cl)cc3)nn2)CC1` [Example 752, (S)-6-(((1-(1-(tert-butyl)piperidin-4-yl)-1H-1,2,3-triazol-4-yl)(4-chlorophenyl)methyl)amino)-8-chloro-4-((1-(2,2,2-trifluoroethyl)-1H-pyrazol-3-yl)amino)quinoline-3-carbonitrile]: above 10000 nM.
As to `N#Cc1cnc2c(Cl)cc(NC(c3cc(C(F)(F)F)cc(C(F)(F)F)c3)c3cn(C4CCNCC4)nn3)cc2c1Nc1ccc(F)c(Cl)c1` (centres unmarked) [Example 874, 6-(((3,5-bis(trifluoromethyl)phenyl)(1-(piperidin-4-yl)-1H-1,2,3-triazo1-4-yl)methyl)amino)-8-chloro-4-((3-chloro-4-fluorophenyl)amino)quinoline-3-carbonitrile], the IC50 was 97 nM.
For `CCN1CCC(n2cc(C(Nc3ccc4ncc(C#N)c(Nc5ccc(F)c(Cl)c5)c4c3)c3ccc(F)cc3)nn2)CC1` (centres unmarked) [Example 827, 4-((3-chloro-4-fluorophenyl)amino)-6-(((1-(1-ethylpiperidin-4-yl)-1H-1,2,3-triazol-4-yl)(4-fluorophenyl)methyl)amino) quinoline-3-carbonitrile], the IC50 was 34 nM.
In the case of `N#Cc1cnc2c(Cl)cc(NC(c3cc(F)c(F)c(F)c3)c3cn(C4CCN(C(=O)OCc5ccccc5)CC4)nn3)cc2c1Nc1ccc(F)c(Cl)c1` (centres unmarked) [Example 890, benzyl 4-(4-(((8-chloro-4-((3-chloro-4-fluorophenyl)amino)-3-cyanoquinolin-6-yl)amino)(3,4,5-trifluorophenyl)methyl)-1H-1,2,3-triazol-1-yl)piperidine-1-carboxylate], the IC50 was above 10000 nM.
With `Cn1cc(C(Nc2cc(Cl)c3ncc(C#N)c(Nc4ccc(F)c(Cl)c4)c3c2)c2cccc(C3OCCO3)c2)nn1` (centres unmarked) [Example 730, 6-(((3-(1,3-dioxolan-2-yl)phenyl)(1-methyl-1H-1,2,3-triazol-4-yl)methyl)amino)-8-chloro-4-((3-chloro-4-fluorophenyl)amino)quinoline-3-carbonitrile], the 50% inhibitory concentration (IC50) was found to be 12 nM.
Next, `Cn1cc(C(Nc2cc(Cl)c3ncc(C#N)c(Nc4ccc(F)c(Cl)c4)c3c2)c2ccc(Cl)c(Cl)c2)nn1` (centres unmarked) [Example 892, 8-chloro-4-((3-chloro-4-fluorophenyl)amino)-6-(((3,4-dichlorophenyl)(1-methyl-1H-1,2,3-triazol-4-yl)methyl)amino)quinoline-3-carbonitrile]: 78 nM; `COc1cc(Nc2c(C#N)cnc3c(Cl)cc(N[C@@H](c4ccc(Cl)cc4)c4cn(C5CCN(C(C)(C)C)CC5)nn4)cc23)c(Cl)cc1Cl` [Example 751, (S)-6-(((1-(1-(tert-butyl)piperidin-4-yl)-1H-1,2,3-triazol-4-yl)(4-chlorophenyl)methyl)amino)-8-chloro-4-((2,4-dichloro-5-methoxyphenyl)amino)quinoline-3-carbonitrile]: above 10000 nM.
Then `N#Cc1cnc2c(Cl)cc(NC(c3ccc(Cl)cc3)c3cn([C@H]4CCNC4)nn3)cc2c1Nc1ccc(F)c(Cl)c1` (stereo partly drawn) [Example 880, 8-chloro-4-((3-chloro-4-fluorophenyl)amino)-6-(((4-chlorophenyl)(1-((S)-pyrrolidin-3-yl)-1H-1,2,3-triazol-4-yl)methyl)amino)quinoline-3-carbonitrile], with 68 nM; and `N#Cc1cnc2c(Cl)cc(NC(c3ccc(F)c(F)c3)c3cn(C4CCN(C(=O)OCc5ccccc5)CC4)nn3)cc2c1Nc1ccc(F)c(Cl)c1` (centres unmarked) [Example 899, benzyl 4-(4-(((8-chloro-4-((3-chloro-4-fluorophenyl)amino)-3-cyanoquinolin-6-yl)amino)(3,4-difluorophenyl)methyl)-1H-1,2,3-triazol-1-yl)piperidine-1-carboxylate], with above 1000 nM.
Next, `N#Cc1cnc2c(Cl)cc(NC(c3ccc(F)cc3)c3ncccn3)cc2c1Nc1ccc(F)c(Cl)c1` (centres unmarked) [Example 800, 8-chloro-4-((3-chloro-4-fluorophenyl)amino)-6-(((4-fluorophenyl)(pyrimidin-2-yl)methyl)amino)quinoline-3-carbonitrile]: above 10000 nM.
For `CC(C)(C)N1CCC(n2cc([C@@H](Nc3ccc4nc(N)c(C#N)c(Nc5ccc(F)c(Cl)c5)c4c3)c3ccc(Cl)cc3)nn2)CC1` [Example 760, (S)-2-amino-6-(((1-(1-(tert-butyl)piperidin-4-yl)-1H-1,2,3-triazol-4-yl)(4-chlorophenyl)methyl)amino)-4-((3-chloro-4-fluorophenyl)amino)quinoline-3-carbonitrile], the half-maximal inhibitory concentration (IC50) is 2340 nM.
Then `CS(=O)(=O)N1CCC(n2cc(C(Nc3cc(Cl)c4ncc(C#N)c(Nc5ccc(F)c(Cl)c5)c4c3)c3ccc(F)cc3)nn2)CC1` (centres unmarked) [Example 845, 8-chloro-4-((3-chloro-4-fluorophenyl)amino)-6-(((4-fluorophenyl)(1-(1-(methylsulfonyl)piperidin-4-yl)-1H-1,2,3-triazol-4-yl)methyl)amino)quinoline-3-carbonitrile], with 99 nM.
Next, `CN(C)CCNCc1cccc([C@H](Nc2cc(Cl)c3ncc(C#N)c(Nc4ccc(F)c(Cl)c4)c3c2)c2cn(C3CCN(C(C)(C)C)CC3)nn2)c1` [Example 726, (S)-6-(((1-(1-(tert-butyl)piperidin-4-yl)-1H-1,2,3-triazol-4-yl)(3-(((2-(dimethylamino)ethyl)amino)methyl)phenyl)methyl)amino)-8-chloro-4-((3-chloro-4-fluorophenyl)amino)quinoline-3-carbonitrile]: 39 nM; `N#Cc1cnc2c(Cl)cc(NC(c3ccc(Cl)c(Cl)c3)c3cn(C4CCN(C(=O)OCc5ccccc5)CC4)nn3)cc2c1Nc1ccc(F)c(Cl)c1` (centres unmarked) [Example 909, benzyl 4-(4-(((8-chloro-4-((3-chloro-4-fluorophenyl)amino)-3-cyanoquinolin-6-yl)amino)(3,4-dichlorophenyl)methyl)-1H-1,2,3-triazol-1-yl)piperidine-1-carboxylate]: above 1000 nM; `N#Cc1cnc2c(Cl)cc(N[C@@H](c3ccc(F)cc3)c3cn(C4COC4)nn3)cc2c1Nc1ccc(F)c(Cl)c1` [Example 810, (S)-8-chloro-4-((3-chloro-4-fluorophenyl)amino)-6-(((4-fluorophenyl)(1-(oxetan-3-yl)-1H-1,2,3-triazol-4-yl)methyl)amino)quinoline-3-carbonitrile]: 12 nM.
Next, `CCN1CCC(n2cc(C(Nc3ccc4ncc(C#N)c(Nc5ccc(F)c(Cl)c5)c4c3)c3ccc(F)cc3)nn2)CC1` (centres unmarked) [Example 832, 4-((3-chloro-4-fluorophenyl)amino)-6-(((1-(1-ethylpiperidin-4-yl)-1H-1,2,3-triazol-4-yl)(4-fluorophenyl)methyl)amino) quinoline-3-carbonitrile]: 9 nM.
With `CC1(C)C[C@H](n2cc([C@H](Nc3cc(Cl)c4ncc(C#N)c(Nc5ccc(F)c(Cl)c5)c4c3)c3ccccc3)nn2)CCN1` [Example 789, 8-chloro-4-((3-chloro-4-fluorophenyl)amino)-6-(((R)-(1-((R)-2,2-dimethylpiperidin-4-yl)-1H-1,2,3-triazol-4-yl)(phenyl)methyl)amino) quinoline-3-carbonitrile], the half-maximal inhibitory concentration (IC50) stood at 657 nM.
Next, `COC(=O)c1cccc([C@@H](c2cn(C3CCN(C(C)(C)C)CC3)nn2)N(C)c2cc(Cl)c3ncc(C#N)c(Nc4ccc(F)c(Cl)c4)c3c2)c1` [Compound 39]: 1990 nM.
With `N#Cc1cnc2c(Cl)cc(NC(c3ccc(OC(F)(F)F)cc3)c3cn(C4CCNCC4)nn3)cc2c1Nc1ccc(F)c(Cl)c1` (centres unmarked) [Example 897, 8-chloro-4-((3-chloro-4-fluorophenyl)amino)-6-(((1-(piperidin-4-yl)-1H-1,2,3-triazol-4-yl)(4-(trifluoromethoxy)phenyl)methyl)amino)quinoline-3-carbonitrile], the half-inhibitory concentration (IC50) was found to be 59 nM.
Next, `CCN1CC[C@H](n2cc(C(Nc3cc(Cl)c4ncc(C#N)c(Nc5ccc(F)c(Cl)c5)c4c3)c3ccc(Cl)cc3)nn2)C1` (stereo partly drawn) [Example 879, 8-chloro-4-((3-chloro-4-fluorophenyl)amino)-6-(((4-chlorophenyl)(1-((S)-1-ethylpyrrolidin-3-yl)-1H-1,2,3-triazol-4-yl)methyl)amino)quinoline-3-carbonitrile]: 101 nM.
